# Data: the NIST ThermoML archive (doi:10.1021/je0340046)
# Several values for one entry are separate records, joined by “and”; a condition that tells them apart may be missing. Equal values may be shown once. Numbers after ± are expanded uncertainties.
# Details: Liquid, Closed cell (Static) method
compound,measurement,setting,value
COC [dimethyl ether],vapor or sublimation pressure,233.13 K,54.61 ± 1.4 kPa
same,vapor or sublimation pressure,238.13 K,68.49 ± 1.4 kPa
same,vapor or sublimation pressure,243.16 K,85.57 ± 1.4 kPa
same,vapor or sublimation pressure,248.15 K,105.59 ± 1.4 kPa
same,vapor or sublimation pressure,253.15 K,129.42 ± 1.4 kPa
same,vapor or sublimation pressure,258.16 K,157.53 ± 1.4 kPa
same,vapor or sublimation pressure,263.16 K,190.44 ± 1.4 kPa
same,vapor or sublimation pressure,268.16 K,228.48 ± 1.4 kPa
same,vapor or sublimation pressure,273.15 K,272.17 ± 1.5 kPa
same,vapor or sublimation pressure,278.14 K,321.87 ± 1.5 kPa
same,vapor or sublimation pressure,283.16 K,378.66 ± 1.5 kPa
same,vapor or sublimation pressure,288.17 K,443.57 ± 1.5 kPa
same,vapor or sublimation pressure,293.16 K,515.53 ± 1.6 kPa
same,vapor or sublimation pressure,298.17 K,596.21 ± 1.6 kPa
same,vapor or sublimation pressure,303.16 K,687.37 ± 1.7 kPa
same,vapor or sublimation pressure,305.16 K,726.26 ± 1.8 kPa
same,vapor or sublimation pressure,308.16 K,787.07 ± 1.8 kPa
same,vapor or sublimation pressure,313.16 K,897.59 ± 1.9 kPa
same,vapor or sublimation pressure,316.15 K,968.55 ± 2 kPa
same,vapor or sublimation pressure,318.16 K,1018.9 ± 2 kPa
same,vapor or sublimation pressure,323.15 K,1152.3 ± 2.2 kPa
same,vapor or sublimation pressure,328.15 K,1298.2 ± 2.3 kPa
same,vapor or sublimation pressure,333.16 K,1457.5 ± 2.5 kPa and 1457.8 ± 2.5 kPa
same,vapor or sublimation pressure,338.15 K,1631 ± 2.7 kPa
same,vapor or sublimation pressure,343.15 K,1818.8 ± 3 kPa
same,vapor or sublimation pressure,348.15 K,2022.5 ± 3.2 kPa
same,vapor or sublimation pressure,353.15 K,2242.7 ± 3.5 kPa
same,vapor or sublimation pressure,353.16 K,2243.1 ± 3.5 kPa
same,vapor or sublimation pressure,358.14 K,2479.9 ± 3.9 kPa
same,vapor or sublimation pressure,363.15 K,2735.7 ± 4.3 kPa
same,vapor or sublimation pressure,368.16 K,3010.8 ± 4.7 kPa
same,vapor or sublimation pressure,373.15 K,3305.7 ± 5.2 kPa
same,vapor or sublimation pressure,378.15 K,3622.6 ± 5.7 kPa
same,vapor or sublimation pressure,383.14 K,3962.2 ± 6.2 kPa
same,vapor or sublimation pressure,388.15 K,4331.5 ± 6.8 kPa
same,vapor or sublimation pressure,393.16 K,4725 ± 7.4 kPa
same,vapor or sublimation pressure,398.16 K,5146.8 ± 8 kPa
same,vapor or sublimation pressure,400.38 K,5355.8 ± 8.4 kPa
